One assay concerns the target Opioid receptor (Rattus norvegicus, UniProt P33533+P34975+P33535). Put plainly: Compound was tested for its binding affinity towards Opioid receptors using [3H]naloxone from rat whole brain.
The next assay deals with D(2) dopamine receptor (Rattus norvegicus, UniProt P61169). Put plainly: Compound was tested for its binding affinity towards Dopamine receptor D2 using [3H]spiperone from rat striatum.
The target in assay [1] is Serotonin 2 (5-HT2) receptor. Put plainly: Compound was tested for its binding affinity towards 5-hydroxytryptamine 2 receptor using [3H]ketanserin from guinea pig frontal cortex. The class given is tissue-based, Cavia porcellus.
In assay [2] the target is T1, Alpha-1A adrenergic receptor (Rattus norvegicus, UniProt P43140).
T1 sequence (P43140 whole entry): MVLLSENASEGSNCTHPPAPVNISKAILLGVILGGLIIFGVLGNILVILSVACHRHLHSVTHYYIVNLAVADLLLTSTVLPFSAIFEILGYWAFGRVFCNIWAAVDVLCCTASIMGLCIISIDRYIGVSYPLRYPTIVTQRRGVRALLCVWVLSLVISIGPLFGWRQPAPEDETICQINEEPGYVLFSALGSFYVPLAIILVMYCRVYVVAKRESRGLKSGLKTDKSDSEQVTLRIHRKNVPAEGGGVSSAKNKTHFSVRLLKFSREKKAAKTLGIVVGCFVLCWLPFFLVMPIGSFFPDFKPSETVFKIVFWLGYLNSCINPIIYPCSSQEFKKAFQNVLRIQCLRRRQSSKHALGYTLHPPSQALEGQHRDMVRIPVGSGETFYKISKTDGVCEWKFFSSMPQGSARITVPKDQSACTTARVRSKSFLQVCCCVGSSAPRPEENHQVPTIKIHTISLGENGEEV
Put plainly: Compound was tested for its binding affinity towards Alpha-1A adrenergic receptor using [3H]prazosin from rat submaxillary gland.

The target in another assay is Sigma 2 receptor. Put plainly: Binding affinity towards sigma 2 receptor using [3H]DTG in the presence of 200 nM (+)-NANM from guinea pig brain. Set-up: species or system Cavia porcellus.
Assay [3] deals with Glutamate receptor ionotropic, NMDA 2C (Rattus norvegicus, UniProt Q00961). Put plainly: Compound was tested for its binding affinity towards PCP receptor using [3H](+)-NANM in the presence of 5 uM haloperidol from rat brain.
The target in assay [4] is Muscarinic acetylcholine receptor M3 (Rattus norvegicus, UniProt P08483). Put plainly: Compound was tested for its binding affinity towards Muscarinic acetylcholine receptor M3 using [3H]NMS from rat submaxillary gland.
In assay [5] the target is T2, Alpha-1B adrenergic receptor (Rattus norvegicus, UniProt P15823).
T2 sequence (P15823 whole entry): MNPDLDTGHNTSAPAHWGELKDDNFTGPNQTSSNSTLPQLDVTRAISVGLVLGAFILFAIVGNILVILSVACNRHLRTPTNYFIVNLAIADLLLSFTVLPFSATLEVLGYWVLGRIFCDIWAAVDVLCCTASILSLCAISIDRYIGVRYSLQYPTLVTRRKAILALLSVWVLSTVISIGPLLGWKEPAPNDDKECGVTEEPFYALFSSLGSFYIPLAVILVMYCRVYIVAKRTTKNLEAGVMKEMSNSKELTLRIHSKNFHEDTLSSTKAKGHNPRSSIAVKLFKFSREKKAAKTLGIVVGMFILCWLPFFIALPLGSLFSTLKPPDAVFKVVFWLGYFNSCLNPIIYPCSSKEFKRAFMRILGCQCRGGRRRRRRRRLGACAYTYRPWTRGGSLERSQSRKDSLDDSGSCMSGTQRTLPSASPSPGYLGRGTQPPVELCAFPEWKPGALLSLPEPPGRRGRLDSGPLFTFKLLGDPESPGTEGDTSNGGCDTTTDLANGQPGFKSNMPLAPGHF
Put plainly: Compound was tested for its binding affinity towards Alpha-1B adrenergic receptor using [3H]prazosin from rat liver.

Assay [6] concerns the target T3, Muscarinic acetylcholine receptor M2 (Rattus norvegicus, UniProt P10980).
T3 sequence (P10980 whole entry): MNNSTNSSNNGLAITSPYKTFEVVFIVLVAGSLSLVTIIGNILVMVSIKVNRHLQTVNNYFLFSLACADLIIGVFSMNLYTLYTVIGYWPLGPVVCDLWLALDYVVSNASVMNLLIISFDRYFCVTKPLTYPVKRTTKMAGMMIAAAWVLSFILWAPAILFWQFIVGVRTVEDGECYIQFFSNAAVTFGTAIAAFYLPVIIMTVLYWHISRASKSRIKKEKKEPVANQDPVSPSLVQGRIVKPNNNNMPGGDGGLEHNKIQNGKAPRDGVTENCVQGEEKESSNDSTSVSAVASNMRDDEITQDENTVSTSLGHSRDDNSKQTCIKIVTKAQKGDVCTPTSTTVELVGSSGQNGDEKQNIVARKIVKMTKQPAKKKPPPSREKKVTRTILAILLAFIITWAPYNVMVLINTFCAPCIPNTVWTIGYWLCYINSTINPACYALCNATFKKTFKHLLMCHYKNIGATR
Put plainly: Compound was tested for its binding affinity towards Muscarinic acetylcholine receptor M2 using [3H]NMS from rat heart.

pKi: −log10 of the molar value.

Among the data in ChEMBL document CHEMBL1131209 (J Med Chem, 1998) are Ki values, retold here.

Chain of Muscarinic acetylcholine receptor M3 (P08483 whole entry): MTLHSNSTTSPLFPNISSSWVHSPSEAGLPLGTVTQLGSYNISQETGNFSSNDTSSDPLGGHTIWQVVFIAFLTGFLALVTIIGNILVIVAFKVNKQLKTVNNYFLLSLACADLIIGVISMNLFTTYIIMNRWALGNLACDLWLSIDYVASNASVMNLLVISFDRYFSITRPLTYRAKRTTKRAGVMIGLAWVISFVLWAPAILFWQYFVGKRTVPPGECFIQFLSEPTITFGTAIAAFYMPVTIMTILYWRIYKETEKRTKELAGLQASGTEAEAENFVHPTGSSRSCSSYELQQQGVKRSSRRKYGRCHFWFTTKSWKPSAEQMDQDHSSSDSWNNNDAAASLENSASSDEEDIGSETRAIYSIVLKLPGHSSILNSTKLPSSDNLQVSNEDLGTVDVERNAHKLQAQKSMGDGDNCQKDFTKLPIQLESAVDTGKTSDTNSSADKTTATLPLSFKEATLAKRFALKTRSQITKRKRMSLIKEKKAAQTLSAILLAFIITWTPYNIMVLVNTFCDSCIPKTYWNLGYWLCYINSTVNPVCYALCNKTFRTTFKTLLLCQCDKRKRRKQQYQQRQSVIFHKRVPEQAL
Chain of D(2) dopamine receptor (P61169 whole entry): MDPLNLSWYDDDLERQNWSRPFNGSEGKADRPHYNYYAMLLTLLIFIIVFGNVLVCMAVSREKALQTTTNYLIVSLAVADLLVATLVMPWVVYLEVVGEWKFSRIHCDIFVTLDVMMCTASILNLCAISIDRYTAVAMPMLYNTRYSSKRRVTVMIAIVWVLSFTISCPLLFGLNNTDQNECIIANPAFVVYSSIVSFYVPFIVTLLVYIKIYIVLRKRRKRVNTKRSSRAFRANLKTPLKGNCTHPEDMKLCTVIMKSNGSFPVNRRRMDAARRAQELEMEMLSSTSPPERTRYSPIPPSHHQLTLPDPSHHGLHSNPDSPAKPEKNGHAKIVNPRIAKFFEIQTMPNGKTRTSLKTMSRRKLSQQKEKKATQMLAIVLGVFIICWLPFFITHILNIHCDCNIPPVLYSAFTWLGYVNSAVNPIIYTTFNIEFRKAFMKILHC
Chain of Glutamate receptor ionotropic, NMDA 2C (Q00961 whole entry): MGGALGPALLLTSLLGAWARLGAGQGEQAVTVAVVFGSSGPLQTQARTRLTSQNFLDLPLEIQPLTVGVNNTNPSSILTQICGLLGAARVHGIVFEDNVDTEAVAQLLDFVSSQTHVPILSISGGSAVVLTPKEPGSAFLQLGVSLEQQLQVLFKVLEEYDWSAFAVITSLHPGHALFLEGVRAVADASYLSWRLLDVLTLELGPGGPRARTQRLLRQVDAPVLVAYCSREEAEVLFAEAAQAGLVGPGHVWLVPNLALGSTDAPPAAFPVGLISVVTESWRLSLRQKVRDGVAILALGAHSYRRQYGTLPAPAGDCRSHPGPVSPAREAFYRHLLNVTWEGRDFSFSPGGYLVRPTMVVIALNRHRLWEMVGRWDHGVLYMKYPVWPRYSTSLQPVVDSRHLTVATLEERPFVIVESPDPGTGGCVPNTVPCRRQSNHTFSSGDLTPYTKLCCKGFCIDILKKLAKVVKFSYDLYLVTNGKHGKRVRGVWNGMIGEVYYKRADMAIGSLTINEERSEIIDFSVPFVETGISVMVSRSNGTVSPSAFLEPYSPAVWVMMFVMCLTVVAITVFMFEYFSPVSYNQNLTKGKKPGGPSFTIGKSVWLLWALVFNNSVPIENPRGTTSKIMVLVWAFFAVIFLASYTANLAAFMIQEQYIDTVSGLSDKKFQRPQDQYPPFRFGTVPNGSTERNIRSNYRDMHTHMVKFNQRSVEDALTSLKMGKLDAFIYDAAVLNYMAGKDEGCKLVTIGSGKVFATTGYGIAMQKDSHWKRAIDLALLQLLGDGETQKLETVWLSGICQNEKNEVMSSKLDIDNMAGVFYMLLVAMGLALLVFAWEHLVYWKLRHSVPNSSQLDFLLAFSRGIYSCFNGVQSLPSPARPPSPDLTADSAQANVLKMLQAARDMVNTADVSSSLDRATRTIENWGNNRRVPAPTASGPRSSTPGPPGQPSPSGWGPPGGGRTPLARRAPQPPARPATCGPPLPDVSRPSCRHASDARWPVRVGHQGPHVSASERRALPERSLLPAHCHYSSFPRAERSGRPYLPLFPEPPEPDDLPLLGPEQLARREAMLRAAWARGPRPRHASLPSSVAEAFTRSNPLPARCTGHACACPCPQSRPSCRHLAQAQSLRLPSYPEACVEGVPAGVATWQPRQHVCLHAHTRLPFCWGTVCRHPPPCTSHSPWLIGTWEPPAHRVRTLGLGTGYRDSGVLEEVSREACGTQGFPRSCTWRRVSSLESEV

What is called Ki is the equilibrium dissociation constant of an inhibitor or competing ligand from its target. A higher Ki goes with lower affinity. As usually defined, the pKi is −log10 of the Ki, conventionally taken in molar units. As for `[O-][S+]1c2ccccc2CCC12CCN(Cc1ccccc1)CC2` (stereo unspecified), the Ki (at Opioid receptor; in assay [1]) was more than 10 µM throughout. Also, the pKi on D(2) dopamine receptor was less than 5.00; in [2], less than 5.00; on Sigma 2 receptor, 5.77; in assay [3], less than 5.00; in [4] it was less than 5.00; in [5] it was less than 5.00. Moreover, the pKi in assay [6] was less than 5.00.
On to `c1ccc(CN2CCC3(CCc4ccccc4O3)CC2)cc1`, for which the Ki (on Opioid receptor; in assay [1]) was more than 10 µM throughout. The negative-log Ki (pKi) at D(2) dopamine receptor was less than 5.00; in assay [2], less than 5.00; on Sigma 2 receptor, 7.66; in [3], less than 5.00; in assay [4], less than 5.00; in assay [5], less than 5.00. Also, the pKi in assay [6] was less than 5.00.
For `O=S1(=O)c2ccccc2CCC12CCN(Cc1ccccc1)CC2`, the inhibitory constant (Ki) (on Opioid receptor; in assay [1]) was more than 10 µM in each case. The pKi is less than 5.00 on D(2) dopamine receptor; less than 5.00 in assay [2]; 5.74 at Sigma 2 receptor; less than 5.00 in assay [3]; less than 5.00 in assay [4]; less than 5.00 in assay [5]. The pKi in assay [6] was less than 5.00.
For the compound `c1ccc(CN2CCC3(CCc4ccccc4S3)CC2)cc1`, the inhibitory constant (Ki) was more than 10 µM on Opioid receptor and 7.6 µM in assay [1]. Further, the pKi on D(2) dopamine receptor is 4.98; in [2], less than 5.00; at Sigma 2 receptor, 6.38; in assay [3] it was less than 5.00; in assay [4] it was less than 5.00; in assay [5] it was less than 5.00. Also, in assay [6], the pKi was 4.97.
On to `O=C1c2ccccc2CCC12CCN(Cc1ccccc1)CC2`, for which the Ki is more than 10 µM on Opioid receptor and 0.218 µM in [1]. In addition, the pKi was less than 5.00 in assay [2]; 8.00 on Sigma 2 receptor; less than 5.00 in [3]; less than 5.00 in [4]; less than 5.00 in assay [5]; 5.57 in assay [6].
Take `CN1CCN(C2=Nc3cc(Cl)ccc3Nc3ccccc32)CC1` [CLOZAPINE]: the negative logarithm of the Ki (pKi) on Sigma 2 receptor was less than 5.00.
Consider `COc1ccccc1CNCCCCCCNCCCCCCCCNCCCCCCNCc1ccccc1OC` [METHOCTRAMINE], for which the pKi in assay [4] was 6.00.
